The values below come from ChEMBL document CHEMBL1201862, “PubChem BioAssay data set” (2004).

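48-hour exposure; five concentrations; linearly interpolated endpoints. GI50 is the concentration that inhibits growth by half.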 Calls of active or inactive are those of the source. No stated cut-off is given here; in the data, active = GI50 up to about 1.1 µM and inactive = higher. Bounds are passed on as bounds.

Some test systems named below: SK-MEL-5; U-251; SF-268; BT-549; HOP-62; MDA-MB-435; SK-OV-3; A549; HCT-116; NCI-H226; K562; TK-10; PC-3; NCI-H460; OVCAR-8; HCT-15; MDA-N; HCC 2998; SK-MEL-2.
What all share (experiment): NCI-60 cell line screen, 48 h

Take `O=C(O)/C=C/C(=O)N1Cc2cc3ccccc3nc2C1`: the GI50 with SK-MEL-5, with U-251, in the assay with SF-268, in the assay on BT-549, in the assay with HOP-62 and in the assay with MDA-MB-435 was > 100 µM (inactive) each time. The GI50 with SK-OV-3, with A549, in the assay with HCT-116, with NCI-H226, with K562 and in the assay with TK-10 was > 100 µM (inactive) in each case. Besides, the GI50 in the assay on PC-3 is > 100 µM (inactive); with NCI-H460, > 100 µM (inactive); in the assay on OVCAR-8 it was > 100 µM (inactive); in the assay on HCT-15, above 100 µM; with MDA-N, > 100 µM (inactive); with HCC 2998, > 100 µM (inactive). Besides, the GI50 in the assay on SK-MEL-2 is > 100 µM (inactive).
Regarding `Oc1c(O)c(Cc2ccccc2)c(Cc2ccccc2)c(Cc2ccccc2)c1Cc1ccccc1`, the GI50 in the assay on SK-MEL-5, in the assay with U-251, with SF-268, in the assay with BT-549, in the assay on HOP-62 and in the assay on MDA-MB-435 was > 10 µM (inactive) throughout. Also, the GI50 with SK-OV-3, in the assay on A549, with HCT-116, in the assay on NCI-H226, in the assay with K562 and with TK-10 was > 10 µM (inactive) throughout. Also, the GI50 in the assay on PC-3 was > 10 µM (inactive); in the assay on NCI-H460, > 10 µM (inactive); in the assay on OVCAR-8 it was > 10 µM (inactive); in the assay with HCT-15, above 10 µM; in the assay on MDA-N, > 10 µM (inactive); in the assay with HCC 2998, > 10 µM (inactive). Besides, the GI50 with SK-MEL-2 was > 10 µM (inactive).
With `NCCC1CN(C(=O)OCc2ccccc2)c2ccccc21` (stereo not drawn), the GI50 in the assay on SK-MEL-5 is 11.2 µM (inactive); with U-251, 14.3 µM (inactive); in the assay on SF-268, 17.1 µM (inactive); with BT-549 it was 16.8 µM (inactive); with HOP-62, 23.1 µM (inactive); with MDA-MB-435, 14.8 µM (inactive). The GI50 is > 42.4 µM (inactive) with SK-OV-3; 27.5 µM (inactive) with A549; 3.59 µM (inactive) in the assay on HCT-116; 12 µM (inactive) with NCI-H226; 4.58 µM (inactive) with K562; 22.6 µM (inactive) in the assay with TK-10. Further, the GI50 was 3.86 µM (inactive) in the assay with PC-3; 17.7 µM (inactive) with NCI-H460; 8.17 µM (inactive) with OVCAR-8; 1.78 µM with HCT-15; 13.5 µM (inactive) in the assay on MDA-N; 16.6 µM (inactive) with HCC 2998. Also, the GI50 with SK-MEL-2 was 18 µM (inactive).
`O=C1N=C(c2ccccc2)OC1C(=O)c1ccccc1` (stereo not drawn): the GI50 with SK-MEL-5, with U-251, in the assay with SF-268, in the assay on BT-549, in the assay on HOP-62 and with MDA-MB-435 was > 100 µM (inactive) each time. The GI50 with SK-OV-3, with A549, in the assay with HCT-116, with NCI-H226, with K562 and in the assay with TK-10 was > 100 µM (inactive) throughout. Further, the GI50 was > 100 µM (inactive) with PC-3; > 100 µM (inactive) in the assay with NCI-H460; > 100 µM (inactive) in the assay on OVCAR-8; above 100 µM in the assay on HCT-15; > 100 µM (inactive) in the assay on MDA-N; > 100 µM (inactive) in the assay on HCC 2998. Moreover, the GI50 in the assay on SK-MEL-2 is > 100 µM (inactive).
As to `O=C1OC[C@@H]2[C@@H](O)CCCCCN12`, the GI50 in the assay with SK-MEL-5, in the assay on U-251, in the assay on BT-549, with HOP-62, in the assay on MDA-MB-435 and in the assay with SK-OV-3 was > 100 µM (inactive) each time. Further, the GI50 in the assay with A549, with HCT-116, in the assay with NCI-H226, with K562, in the assay with TK-10 and in the assay with PC-3 was > 100 µM (inactive) in each case. Moreover, the GI50 was > 100 µM (inactive) with NCI-H460; > 100 µM (inactive) in the assay on OVCAR-8; above 100 µM with HCT-15; > 100 µM (inactive) in the assay on MDA-N; > 100 µM (inactive) with HCC 2998; > 100 µM (inactive) with SK-MEL-2.
Turning to `S=C(N1CCN(c2ccccc2)CC1)N1CCN(c2ccccc2)CC1`, the GI50 in the assay on SK-MEL-5 was 95.1 µM (inactive); in the assay with U-251 it was > 100 µM (inactive); in the assay on SF-268, > 100 µM (inactive); with BT-549, > 100 µM (inactive); in the assay on HOP-62, > 100 µM (inactive); in the assay on MDA-MB-435, > 100 µM (inactive). Moreover, the GI50 with SK-OV-3 was > 100 µM (inactive); in the assay on A549, > 100 µM (inactive); with HCT-116 it was 81.8 µM (inactive); in the assay with NCI-H226, 94.6 µM (inactive); in the assay on K562, > 100 µM (inactive); in the assay with TK-10, > 100 µM (inactive). Further, the GI50 in the assay on PC-3 is > 100 µM (inactive); in the assay with NCI-H460, > 100 µM (inactive); with OVCAR-8, > 100 µM (inactive); in the assay with HCT-15, above 100 µM; in the assay on MDA-N it was 89.5 µM (inactive); in the assay with HCC 2998, > 100 µM (inactive). In addition, the GI50 with SK-MEL-2 is > 100 µM (inactive).
Regarding `O=C(N/N=C/c1ccc(O)cc1)NNCCO`, the GI50 with SK-MEL-5, in the assay on U-251, in the assay on BT-549, in the assay with HOP-62, in the assay with MDA-MB-435 and in the assay on SK-OV-3 was > 100 µM (inactive) in each case. Besides, the GI50 with A549, in the assay with HCT-116, with NCI-H226, in the assay with K562, in the assay with TK-10 and with PC-3 was > 100 µM (inactive) throughout. In addition, the GI50 in the assay with NCI-H460 was > 100 µM (inactive); with OVCAR-8 it was > 100 µM (inactive); in the assay on HCT-15 it was above 100 µM; in the assay with MDA-N it was > 100 µM (inactive); in the assay with HCC 2998 it was > 100 µM (inactive); with SK-MEL-2 it was > 100 µM (inactive).
As for `ClCC[N+]12CC[N+](CCCl)(CC1)C2`, the GI50 with SK-MEL-5, in the assay with U-251, in the assay on SF-268, in the assay with BT-549, in the assay on HOP-62 and with MDA-MB-435 was > 100 µM (inactive) throughout. Moreover, the GI50 in the assay with SK-OV-3, in the assay on A549, in the assay with HCT-116, with NCI-H226, with K562 and in the assay on TK-10 was > 100 µM (inactive) in each case. The GI50 is > 100 µM (inactive) in the assay with PC-3; > 87.7 µM (inactive) with NCI-H460; > 100 µM (inactive) in the assay on OVCAR-8; above 100 µM in the assay with HCT-15; > 100 µM (inactive) with MDA-N; > 100 µM (inactive) with HCC 2998. In addition, the GI50 with SK-MEL-2 was > 100 µM (inactive).
As to `CC(C)(C)OC(=O)CN1CCNCCN(CC(=O)OC(C)(C)C)CCNCC1`, the GI50 with SK-MEL-5 was 50.6 µM (inactive); with U-251, 78.2 µM (inactive); in the assay on BT-549 it was > 100 µM (inactive); in the assay on HOP-62, > 100 µM (inactive); in the assay on MDA-MB-435 it was 98.9 µM (inactive); in the assay on SK-OV-3, > 100 µM (inactive). Besides, the GI50 in the assay with A549 is 82 µM (inactive); in the assay on HCT-116, 26.2 µM (inactive); with NCI-H226, > 100 µM (inactive); in the assay on K562, 47 µM (inactive); in the assay on TK-10 it was > 100 µM (inactive); in the assay with PC-3 it was > 100 µM (inactive). The GI50 in the assay on NCI-H460 is 63.2 µM (inactive); with OVCAR-8, > 100 µM (inactive); with HCT-15, above 100 µM; with MDA-N it was 65.6 µM (inactive); in the assay on HCC 2998, > 100 µM (inactive); in the assay on SK-MEL-2, > 100 µM (inactive).
As to `CSc1ccc(-c2cc(-c3nc4ccccc4[nH]3)no2)cc1`, the GI50 in the assay on SK-MEL-5 is 15.9 µM (inactive); in the assay with SF-268, 32 µM (inactive); in the assay with BT-549, 19.6 µM (inactive); with HOP-62, 34.4 µM (inactive); in the assay on MDA-MB-435, 18.5 µM (inactive); in the assay with SK-OV-3, 70.5 µM (inactive). Further, the GI50 with A549 was 23.6 µM (inactive); in the assay with HCT-116, 32.5 µM (inactive); in the assay with NCI-H226, 40.5 µM (inactive); with K562 it was 22.1 µM (inactive); with TK-10, 36.6 µM (inactive); in the assay on PC-3, 32.6 µM (inactive). For the same compound, the GI50 with NCI-H460 is 18.4 µM (inactive); with OVCAR-8, 35 µM (inactive); in the assay with HCT-15 it was 9.62 µM; with MDA-N, 26.9 µM (inactive); with HCC 2998, 16.2 µM (inactive); in the assay with SK-MEL-2, 20.4 µM (inactive).
For `CC(=O)OCc1nc(C#N)c(N)o1`, the GI50 in the assay on SK-MEL-5, with U-251, in the assay on SF-268, with BT-549, in the assay on HOP-62 and in the assay on MDA-MB-435 was > 100 µM (inactive) in each case. Besides, the GI50 with SK-OV-3, in the assay with HCT-116, in the assay with NCI-H226, in the assay with K562, in the assay with TK-10 and in the assay on PC-3 was > 100 µM (inactive) in each case. The GI50 was > 100 µM (inactive) in the assay with NCI-H460; above 100 µM with HCT-15; > 100 µM (inactive) with MDA-N; > 100 µM (inactive) in the assay with HCC 2998; > 100 µM (inactive) in the assay on SK-MEL-2.
